Data published in US10669261B2, “Heteroarylhydroxypyrimidinones as agonists of the APJ receptor” (BRISTOL-MYERS SQUIBB COMPANY, priority 2015, dated 2020).

biological target: T1, human APJ receptor (Homo sapiens, UniProt P35414); experiment: Intracellular cAMP accumulation assay (APJ hcAMP, HTRF); assay type: cell-based; settings: Table 1; HEK293 cells stably expressing human APJ receptor; read-out: hAPJ cAMP EC50 Potency range
T1 construct: expressed in transfected cells
T1 sequence (P35414 1-380): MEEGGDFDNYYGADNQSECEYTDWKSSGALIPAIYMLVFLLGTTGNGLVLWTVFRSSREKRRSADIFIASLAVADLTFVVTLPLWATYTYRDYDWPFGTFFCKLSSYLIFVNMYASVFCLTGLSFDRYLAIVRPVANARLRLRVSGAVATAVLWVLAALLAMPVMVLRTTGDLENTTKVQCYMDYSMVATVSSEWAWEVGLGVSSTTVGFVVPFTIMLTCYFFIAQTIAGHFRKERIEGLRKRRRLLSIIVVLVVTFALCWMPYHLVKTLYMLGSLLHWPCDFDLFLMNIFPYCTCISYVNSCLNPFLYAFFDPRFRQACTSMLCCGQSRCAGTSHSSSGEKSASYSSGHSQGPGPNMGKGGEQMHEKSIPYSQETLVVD
Procedure: Intracellular cAMP Accumulation Assay
HEK293 cells stably expressing human APJ receptor were used to assess the activity of compounds. Cultured cells were detached and resuspended in the cAMP Homogeneous Time-Resolved Fluorescence (HTRF) assay buffer (Cisbio cat; #62AM4PEJ). The assay was performed in 384-well assay plates (Perkin-Elmer; cat #6008289) according to assay protocol provided by the manufacturer. Serial dilutions of a compound together with assay buffer containing […] IBMX and 2 μM forskolin were added to each well containing 5,000 cells and incubated for 30 minutes at room temperature. Subsequently, cAMP D2 reagent was added in the lysis buffer followed by the EuK antibody (Cisbio; cat #62AM4PEJ) and incubated for 60 min. The fluorescence emission ratio was measured using fluorometer. The intracellular cAMP concentrations (compound-stimulated inhibition of forskolin-mediated cAMP production) were calculated by extrapolation from a standard curve using known cAMP concentrations. The EC50 values were obtained by fitting the data to a sigmoidal concentration-response curve with variable slope. The maximal achievable inhibition of forskolin-induced cAMP levels (Ymax) for each compound was expressed as relative percentage of inhibition attained using pyroglutamated apelin-13 ((Pyr1)apelin-13) peptide, which was set to 100%.
The examples disclosed below were tested in the APJ in vitro assays described above and were found having human APJ cyclic AMP (hcAMP) activity. The EC50 value of each compound is presented at the end of the example description.
The biological activity of the exemplified compounds of this invention determined by the assay described above is shown at the end of each example.

Row | EC50 | Structure (SMILES)
1 | 0.01 to 10 nM | CCCCc1nc(=O)c(-c2nnc(Cc3csc(C)n3)o2)c(O)n1-c1c(OCC)cccc1OCC [Example 25, 2-butyl-1-(2,6-diethoxyphenyl)-6-hydroxy-5-{5-[(2-methyl-1,3-thiazol-4-yl)methyl]-1,3,4-oxadiazol-2-yl}-1,4-dihydropyrimidin-4-one]
2 | 0.01 to 10 nM | COc1cccc(OC)c1-n1c(C2CCC2)nc(=O)c(-c2nnc(Cc3csc(C)n3)o2)c1O [Example 73, 2-cyclobutyl-1-(2,6-dimethoxyphenyl)-6-hydroxy-5-{5-[(2-methyl-1,3-thiazol-4-yl)methyl]-1,3,4-oxadiazol-2-yl}-1,4-dihydropyrimidin-4-one]
3 | 0.01 to 10 nM | COc1cccc(OC)c1-n1c(C2CCCC2)nc(=O)c(-c2nnc(Cc3csc(C)n3)o2)c1O [Example 65, 2-cyclopentyl-1-(2,6-dimethoxyphenyl)-6-hydroxy-5-{5-[(2-methyl-1,3-thiazol-4-yl)methyl]-1,3,4-oxadiazol-2-yl}-1,4-dihydropyrimidin-4-one]
4 | 0.01 to 10 nM | COc1cccc(OC)c1-n1c(CCC2CC2)nc(=O)c(-c2nnc(CN3CCCC3=O)o2)c1O [Example 43, 2-(2-cyclopropylethyl)-1-(2,6-dimethoxyphenyl)-6-hydroxy-5-{5-[(2-oxopyrrolidin-1-yl)methyl]-1,3,4-oxadiazol-2-yl}-1,4-dihydropyrimidin-4-one]

same assay, conditions: Table 2; HEK293 cells stably expressing human APJ receptor; read-out: hAPJ cAMP EC50 Potency range

Row | EC50 | Structure (SMILES)
5 | 0.01 to 10 nM | CCCCc1nc(O)c(-c2nnc(Cc3csc(C)n3)o2)c(=O)n1[C@@H](CC)c1ccccc1 [Example 85, 2-butyl-6-hydroxy-5-{5-[(2-methyl-1,3-thiazol-4-yl)methyl]-1,3,4-oxadiazol-2-yl}-3-[(1S)-1-phenylpropyl]-3,4-dihydropyrimidin-4-one]
6 | 10 to 100 nM | CCCCc1nc(O)c(-c2nnc(Cc3ccc(Cl)cc3)o2)c(=O)n1[C@H](C)c1ccccc1 [Example 83, 2-butyl-5-{5-[(4-chlorophenyl)methyl]-1,3,4-oxadiazol-2-yl}-6-hydroxy-3-[(1R)-1-phenylethyl]-3,4-dihydropyrimidin-4-one]
7 | 10 to 100 nM | CCCCc1nc(O)c(-c2nnc(Cc3noc4ccccc34)o2)c(=O)n1[C@@H](COC)c1ccccc1 [Example 91, 5-{5-[(1,2-benzoxazol-3-yl)methyl]-1,3,4-oxadiazol-2-yl}-2-butyl-6-hydroxy-3-[(1R)-2-methoxy-1-phenylethyl]-3,4-dihydropyrimidin-4-one]
8 | 10 to 100 nM | CCCCc1nc(O)c(-c2nnc(Cc3csc(C)n3)o2)c(=O)n1[C@@H](CCC)c1ccccc1 [Example 106, 2-butyl-6-hydroxy-5-{5-[(2-methyl-1,3-thiazol-4-yl)methyl]-1,3,4-oxadiazol-2-yl}-3-[(1S)-1-phenylbutyl]-3,4-dihydropyrimidin-4-one]
9 | 10 to 100 nM | CCCCc1nc(O)c(-c2nnc(Cc3ccc(Cl)cn3)o2)c(=O)n1C(C)c1cccnc1 (stereo not drawn) [Example 123, 2-butyl-5-{5-[(5-chloropyridin-2-yl)methyl]-1,3,4-oxadiazol-2-yl}-6-hydroxy-3-[1-(pyridin-3-yl)ethyl]-3,4-dihydropyrimidin-4-one]
10 | 0.01 to 10 nM | CCCCc1nc(O)c(-c2nnc(Cc3noc4ccccc34)o2)c(=O)n1[C@H](CC)c1ccccc1 [Example 87, 5-{5-[(1,2-benzoxazol-3-yl)methyl]-1,3,4-oxadiazol-2-yl}-2-butyl-6-hydroxy-3-[(1R)-1-phenylpropyl]-3,4-dihydropyrimidin-4-one]
11 | 0.01 to 10 nM | CCCCc1nc(O)c(-c2nnc(Cc3csc(C)n3)o2)c(=O)n1[C@H](CC)c1ccccc1 [Example 88]
12 | 10 to 100 nM | CCCCc1nc(O)c(-c2nnc(Cc3csc(C)n3)o2)c(=O)n1C(c1ccccc1)C(C)C (stereo not drawn) [Example 112, 2-butyl-6-hydroxy-5-{5-[(2-methyl-1,3-thiazol-4-yl)methyl]-1,3,4-oxadiazol-2-yl}-3-(2-methyl-1-phenylpropyl)-3,4-dihydropyrimidin-4-one]
